Results: the NIST ThermoML archive (doi:10.1021/je060054+)
± gives the expanded uncertainty stated by the source.

Test: refractive index (Na D-line) (dimensionless)
Details: 298.15 K; 101.33 kPa; Liquid; Standard Abbe refractometry

Row | refractive index | SMILES
1 | 1.35941 ± 0.00073 | CCO [ethanol]
2 | 1.36978 ± 0.00072 | CCOC(C)=O [ethyl acetate]
3 | 1.4077 ± 0.00073 | CCCCCO [pentan-1-ol]
4 | 1.3325 ± 0.00072 | O [water]
